These results are taken from patent US20160185837A1 (Medimmune Limited, priority 2013, published 2016).

One data set addresses T1, cyno GLP-1r (cGLP-1r) (Macaca fascicularis, UniProt F8V479).
T1 construct: expressed in transfected cells
As to the kind of experiment: cAMP assay, cells expressing cyno GLP-1r, 4.2% cyno serum albumin. The class given is cell-based, cynomolgus monkey. From the text: In certain aspects, the assay can also be carried out in medium supplemented with serum albumin that corresponds to the receptor being tested, e.g., human serum albumin for testing cAMP activity at hGIPr or hGLP-1r, rat serum albumin for testing cAMP activity at rGIPr or rGLP-1r, and so on. […] All sample dilutions were made in duplicate.
A frozen cryo-vial of cells expressing the receptor of interest was thawed rapidly in a water-bath, transferred to pre-warmed assay media and spun at 240×g for 5 minutes. Cells were re-suspended in assay buffer at an optimized concentration (e.g., hGLP-1r and hGIPr cells at 0.5×10^5 cells/ml).
To this, 5 μL cell suspension was added and the plates incubated at room temperature for 30 minutes.
cAMP levels were measured using a commercially available cAMP dynamic 2 HTRF kit (Cisbio, Cat #62AM4PEJ), following the two step protocol as per manufacturer's recommendations. In brief; anti-cAMP cryptate (donor fluorophore) and cAMP-d2 (acceptor fluorophore) were made up separately by diluting each 1/20 in conjugate & lysis buffer provided in the kit. […] Data was transformed to % Delta F as described in manufacturer's guidelines and then transformed to percent activation of maximal native agonist response and analysed by 4-parameter logistic fit to determine EC50 values.
In general terms: Cyclic AMP is a second messenger, typically raised through Gs and lowered through Gi signalling.

The test system of another data set is cyno GCGr (cGCGr). As to the kind of experiment: cAMP assay, cells expressing cyno GCGr, 4.2% cyno serum albumin. As to conditions: culture medium containing 4.2% cyno serum albumin. The format is cell-based, cynomolgus monkey. From the text: In certain aspects, the assay can also be carried out in medium supplemented with serum albumin that corresponds to the receptor being tested, e.g., human serum albumin for testing cAMP activity at hGIPr or hGLP-1r, rat serum albumin for testing cAMP activity at rGIPr or rGLP-1r, and so on. Low protein binding 384-well plates (Greiner #781280) were used to perform eleven 1 in 5 serial dilutions of test samples that were made in assay medium. All sample dilutions were made in duplicate.
A frozen cryo-vial of cells expressing the receptor of interest was thawed rapidly in a water-bath, transferred to pre-warmed assay media and spun at 240×g for 5 minutes. Cells were re-suspended in assay buffer at an optimized concentration (e.g., hGLP-1r and hGIPr cells at 0.5×10^5 cells/ml). […]
cAMP levels were measured using a commercially available cAMP dynamic 2 HTRF kit (Cisbio, Cat #62AM4PEJ), following the two step protocol as per manufacturer's recommendations. […] Plates were incubated at room temperature for one hour and then read on an Envision (Perkin Elmer) using excitation wavelength of 320 nm and emission wavelengths of 620 nm & 665 nm. Data was transformed to % Delta F as described in manufacturer's guidelines and then transformed to percent activation of maximal native agonist response and analysed by 4-parameter logistic fit to determine EC50 values.

Data set [1] in a line: Extended pharmacokinetics, serum ELISA for protein (Fc) detection. The format is in vivo, CD male rats. As to conditions: 1 mg/kg subcutaneously or intravenously, serum out to 168 hours. The protocol: More extended pharmacokinetic assays to determine protein stability and activity were performed as follows. CD male rats (n=3) were injected subcutaneously or intravenously with 1 mg/kg IP088 or GLP1a-Fc. Periodic serum samples were obtained out to 168 hours. The serum samples were subjected to ELISA for protein (Fc) detection by the following method. ELISA plates (Costar 3690) were coated with Mouse anti-human IgG (JCD-10) 1/500 in PBS (final concentration 1 μg/ml). […] was added to each well and the plates were incubated overnight at 4° C. Following washing with PBS-Tween (PBS-T), the plates were blocked with […] 1% BSA in PBS for 1 h at RT with gentle shaking. Following washing with PBS-T, standards, and dilutions of […] samples were added (50 μl/well), and the plate was incubated for 2 h at RT with gentle shaking. Following washing […] biotinylated mouse anti-human IgG (JCD-10) diluted 1/1000 in ELISA incubation buffer (final concentration 0.5 μg/ml) was added to each well and the plates were incubated for 1 h at RT with gentle shaking. Following washing […] of Streptavidin-HRP diluted 1/1000 in ELISA incubation buffer was added to each well, and the plates were incubated for 45 min at RT with gentle shaking. […]
For orientation: An ELISA detects its analyte on a solid surface through an enzyme-linked reagent.

pEC50: −log10 of the molar value. Read-outs that look alike come from different tables or passages of the source. Ends that are not written are not given here.

Usually pEC50 stands for the EC50 on a negative log10 scale, so that one unit is a factor of ten.

T1 sequence (F8V479 24-463): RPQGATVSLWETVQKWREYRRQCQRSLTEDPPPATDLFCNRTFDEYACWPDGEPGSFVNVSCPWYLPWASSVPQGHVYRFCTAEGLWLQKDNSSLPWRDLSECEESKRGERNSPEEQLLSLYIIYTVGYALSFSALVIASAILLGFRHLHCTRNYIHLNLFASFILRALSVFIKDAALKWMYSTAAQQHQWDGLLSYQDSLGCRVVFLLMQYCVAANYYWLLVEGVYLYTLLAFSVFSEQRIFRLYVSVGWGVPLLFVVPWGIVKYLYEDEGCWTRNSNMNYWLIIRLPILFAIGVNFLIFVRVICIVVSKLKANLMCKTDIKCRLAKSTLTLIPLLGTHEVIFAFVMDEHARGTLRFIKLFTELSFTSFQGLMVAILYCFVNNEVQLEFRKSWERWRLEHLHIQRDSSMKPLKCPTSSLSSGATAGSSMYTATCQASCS

In the case of `CCCCCCCCCCCCCCCC(=O)N[C@@H](CCC(=O)NCCCC[C@H](NC(=O)[C@H](C)NC(=O)[C@H](C)NC(=O)[C@H](CCC(N)=O)NC(=O)CNC(=O)[C@H](CCC(=O)O)NC(=O)[C@H](CC(C)C)NC(=O)[C@H](Cc1ccc(O)cc1)NC(=O)[C@H](CO)NC(=O)[C@H](CO)NC(=O)[C@@H](NC(=O)[C@H](CC(=O)O)NC(=O)[C@H](CO)NC(=O)[C@@H](NC(=O)[C@H](Cc1ccccc1)NC(=O)[C@@H](NC(=O)CNC(=O)[C@H](CCC(=O)O)NC(=O)[C@H](C)NC(=O)[C@@H](N)Cc1cnc[nH]1)[C@@H](C)O)[C@@H](C)O)C(C)C)C(=O)N[C@@H](CCC(=O)O)C(=O)N[C@@H](Cc1ccccc1)C(=O)N[C@H](C(=O)N[C@@H](C)C(=O)N[C@@H](Cc1c[nH]c2ccccc12)C(=O)N[C@@H](CC(C)C)C(=O)N[C@H](C(=O)N[C@@H](CCCNC(=N)N)C(=O)NCC(=O)N[C@@H](CCCNC(=N)N)C(=O)NCC(=O)O)C(C)C)[C@@H](C)CC)C(=O)O` [liraglutide], the pEC50 at cyno GLP-1r (cGLP-1r) was 10.60.
Take “GLP1a-Fc: GLP-1 analogue-Fc (gamma4) fusion control; GLP-1 agonist; Peptide SEQ ID NO:62-Fc, SEQ ID NO:189 (HGEGTFTSDVSSYLEEQAAKEFIAWLVKGR; also: Fc (gamma4) fusion)”: the pEC50 was 10.96 with cyno GLP-1r (cGLP-1r) (culture medium containing 4.2% cyno serum albumin, read-out: EC50 for cGLP-1r) and under 6.00 in the data set on cyno GCGr (cGCGr). For the same compound, the “PK profile by Fc ELISA (Cmax, bioavailability, half-life), in words” value in data set [1] was “equivalent PK profiles”.
For “hGCG: native human glucagon, comparator in cAMP assays”, in the data set on cyno GCGr (cGCGr), the pEC50 is 11.44.
